In patent US20240158446A1, “CYCLIC COMPOUND HAVING SELECTIVE INHIBITORY ACTION ON KRAS OVER HRAS AND NRAS” (CHUGAI SEIYAKU KABUSHIKI KAISHA, priority 2021, published 2024):
*1 amine or outer side, *2 acyl side, *3 side chain or, on linkers, in order; H or OH if unused. Where a SMILES comes first, the peptide text is derived from it. Bridges are numbered along the chain shown (N, C = ends). [ ]: non-standard residue; d: D form. The star is where a group is joined. hPhe(3-Cl-4-CF3) = N[C@@H](CCc1ccc(C(F)(F)F)c(Cl)c1)C(=O)O; X36 = Cc1ccc(C[C@@H](C(=O)[*:2])N(CCC(F)(F)F)[*:1])cc1; X41 = Cc1ccc(C[C@@H](C(=O)[*:2])N(CC2CCCCC2)[*:1])cc1; X20 = Cc1ccc(C[C@@H](C(=O)[*:2])N(CC2CCCC2)[*:1])cc1; X15 = Cc1ccc(C[C@@H](C(=O)[*:2])N(CCC(C)C)[*:1])cc1; X42 = Cc1ccc(C[C@@H](C(=O)[*:2])N(CC2CCC2)[*:1])cc1; X28 = COCCCN([C@@H](Cc1ccc(C)cc1)C(=O)[*:2])[*:1]; X30 = C=CCCN([C@@H](Cc1ccc(C)cc1)C(=O)[*:2])[*:1]; X10 = C=CCN([C@@H](Cc1ccc(C)cc1)C(=O)[*:2])[*:1]; X35 = COCCN([C@@H](Cc1ccc(C)cc1)C(=O)[*:2])[*:1]; NMeGly(cPent) = CN[C@H](C(=O)O)C1CCCC1; NMeD = CN[C@@H](CC(=O)O)C(=O)O; NMeL = CN[C@@H](CC(C)C)C(=O)O; Morpholide = C1CN(*)CCO1; NMeA = CN[C@@H](C)C(=O)O; Ac5c = NC1(C(=O)O)CCCC1; Aze = O=C(O)[C@@H]1CCN1; Sar = CNCC(=O)O

Experiments:
[1] = molecular target: GDP-bound KRAS wild-type protein (Homo sapiens, UniProt P01116); assay: Binding to KRAS by surface plasmon resonance (SPR), Single Cycle Kinetics; conditions: SPR Single Cycle Kinetics, GDP-bound KRAS wild-type protein, 1:1 binding model; read-out: KRAS KD
[2] = molecular target: GDP-bound NRAS wild-type protein (Homo sapiens, UniProt P01111); assay: Binding to NRAS by surface plasmon resonance (SPR), Single Cycle Kinetics; conditions: SPR, GDP-bound NRAS wild-type protein vs GDP-bound KRAS wild-type protein
[3] = molecular target: GDP-bound HRAS wild-type protein (Homo sapiens, UniProt P01112); assay: Binding to HRAS by surface plasmon resonance (SPR), Single Cycle Kinetics; conditions: SPR, GDP-bound HRAS wild-type protein vs GDP-bound KRAS wild-type protein
Sequence of GDP-bound HRAS wild-type protein (P01112 whole entry): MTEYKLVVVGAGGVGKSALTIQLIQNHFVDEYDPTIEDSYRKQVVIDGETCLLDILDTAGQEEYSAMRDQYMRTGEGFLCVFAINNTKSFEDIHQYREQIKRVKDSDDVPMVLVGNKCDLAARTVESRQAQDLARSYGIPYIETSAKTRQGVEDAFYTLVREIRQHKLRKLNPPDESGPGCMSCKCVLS

Sequence of GDP-bound NRAS wild-type protein (P01111 whole entry): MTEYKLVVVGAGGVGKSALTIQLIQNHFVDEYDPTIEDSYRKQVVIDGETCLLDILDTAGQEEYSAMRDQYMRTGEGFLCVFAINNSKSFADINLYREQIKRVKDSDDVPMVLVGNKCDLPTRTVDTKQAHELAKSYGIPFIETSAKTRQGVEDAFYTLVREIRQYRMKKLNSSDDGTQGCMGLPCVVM
Sequence of GDP-bound KRAS wild-type protein (P01116 whole entry): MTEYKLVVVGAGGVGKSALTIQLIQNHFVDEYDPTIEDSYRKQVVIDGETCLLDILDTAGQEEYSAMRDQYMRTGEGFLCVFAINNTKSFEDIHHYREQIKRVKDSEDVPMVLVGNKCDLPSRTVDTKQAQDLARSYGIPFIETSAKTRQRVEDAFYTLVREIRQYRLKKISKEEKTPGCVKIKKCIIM

Structure (SMILES)	Kd [1] [nM]	NRAS/KRAS (ratio of KD value for NRAS to KD value for KRAS) [2]	HRAS/KRAS (ratio of KD value for HRAS to KD value for KRAS) [3]
CC[C@H](C)[C@@H]1NC(=O)[C@H](CC(C)C)N(C)C(=O)C[C@@H](C(=O)N2CCOCC2)N(C)C(=O)[C@H](C2CCCC2)N(C)C(=O)C2(CCCC2)NC(=O)[C@@H]2CCCN2C(=O)[C@H](CCc2ccc(C(F)(F)F)c(Cl)c2)NC(=O)CN(C)C(=O)[C@H](Cc2ccc(C)cc2)N(CCC(C)C)C(=O)[C@@H]2CCN2C(=O)[C@H](C)N(C)C1=O [PP0086] ([NMeL]I[NMeA][Aze][X15][Sar][hPhe(3-Cl-4-CF3)]P[Ac5c][NMeGly(cPent)][NMeD]-Morpholide; lactam N-11)	0.26	C (A compound having a KD ratio of 0.1 or more and less than 3 is denoted as C)	B (a compound having 3 or more and less than 10 is denoted as B)
C=CCCN1C(=O)[C@@H]2CCN2C(=O)[C@H](C)N(C)C(=O)[C@H]([C@@H](C)CC)NC(=O)[C@H](CC(C)C)N(C)C(=O)C[C@@H](C(=O)N2CCOCC2)N(C)C(=O)[C@H](C2CCCC2)N(C)C(=O)C2(CCCC2)NC(=O)[C@@H]2CCCN2C(=O)[C@H](CCc2ccc(C(F)(F)F)c(Cl)c2)NC(=O)CN(C)C(=O)[C@@H]1Cc1ccc(C)cc1 [PP0089] ([NMeL]I[NMeA][Aze][X30][Sar][hPhe(3-Cl-4-CF3)]P[Ac5c][NMeGly(cPent)][NMeD]-Morpholide; lactam N-11)	0.17	C (A compound having a KD ratio of 0.1 or more and less than 3 is denoted as C)	B (a compound having 3 or more and less than 10 is denoted as B)
CC[C@H](C)[C@@H]1NC(=O)[C@H](CC(C)C)N(C)C(=O)C[C@@H](C(=O)N2CCOCC2)N(C)C(=O)[C@H](C2CCCC2)N(C)C(=O)C2(CCCC2)NC(=O)[C@@H]2CCCN2C(=O)[C@H](CCc2ccc(C(F)(F)F)c(Cl)c2)NC(=O)CN(C)C(=O)[C@H](Cc2ccc(C)cc2)N(CCC(F)(F)F)C(=O)[C@@H]2CCN2C(=O)[C@H](C)N(C)C1=O [PP0091] ([NMeL]I[NMeA][Aze][X36][Sar][hPhe(3-Cl-4-CF3)]P[Ac5c][NMeGly(cPent)][NMeD]-Morpholide; lactam N-11)	0.23	C (A compound having a KD ratio of 0.1 or more and less than 3 is denoted as C)	B (a compound having 3 or more and less than 10 is denoted as B)
CC[C@H](C)[C@@H]1NC(=O)[C@H](CC(C)C)N(C)C(=O)C[C@@H](C(=O)N2CCOCC2)N(C)C(=O)[C@H](C2CCCC2)N(C)C(=O)C2(CCCC2)NC(=O)[C@@H]2CCCN2C(=O)[C@H](CCc2ccc(C(F)(F)F)c(Cl)c2)NC(=O)CN(C)C(=O)[C@H](Cc2ccc(C)cc2)N(CCOC)C(=O)[C@@H]2CCN2C(=O)[C@H](C)N(C)C1=O [PP0092] ([NMeL]I[NMeA][Aze][X35][Sar][hPhe(3-Cl-4-CF3)]P[Ac5c][NMeGly(cPent)][NMeD]-Morpholide; lactam N-11)	0.15	C (A compound having a KD ratio of 0.1 or more and less than 3 is denoted as C)	C (A compound having a KD ratio of 0.1 or more and less than 3 is denoted as C)
CC[C@H](C)[C@@H]1NC(=O)[C@H](CC(C)C)N(C)C(=O)C[C@@H](C(=O)N2CCOCC2)N(C)C(=O)[C@H](C2CCCC2)N(C)C(=O)C2(CCCC2)NC(=O)[C@@H]2CCCN2C(=O)[C@H](CCc2ccc(C(F)(F)F)c(Cl)c2)NC(=O)CN(C)C(=O)[C@H](Cc2ccc(C)cc2)N(CCCOC)C(=O)[C@@H]2CCN2C(=O)[C@H](C)N(C)C1=O [PP0093] ([NMeL]I[NMeA][Aze][X28][Sar][hPhe(3-Cl-4-CF3)]P[Ac5c][NMeGly(cPent)][NMeD]-Morpholide; lactam N-11)	0.076	C (A compound having a KD ratio of 0.1 or more and less than 3 is denoted as C)	B (a compound having 3 or more and less than 10 is denoted as B)
CC[C@H](C)[C@@H]1NC(=O)[C@H](CC(C)C)N(C)C(=O)C[C@@H](C(=O)N2CCOCC2)N(C)C(=O)[C@H](C2CCCC2)N(C)C(=O)C2(CCCC2)NC(=O)[C@@H]2CCCN2C(=O)[C@H](CCc2ccc(C(F)(F)F)c(Cl)c2)NC(=O)CN(C)C(=O)[C@H](Cc2ccc(C)cc2)N(CC2CCC2)C(=O)CN(C)C(=O)CN(C)C1=O [PP0095] ([NMeL]I[Sar][Sar][X42][Sar][hPhe(3-Cl-4-CF3)]P[Ac5c][NMeGly(cPent)][NMeD]-Morpholide; lactam N-11)	0.79	C (A compound having a KD ratio of 0.1 or more and less than 3 is denoted as C)	C (A compound having a KD ratio of 0.1 or more and less than 3 is denoted as C)
CC[C@H](C)[C@@H]1NC(=O)[C@H](CC(C)C)N(C)C(=O)C[C@@H](C(=O)N2CCOCC2)N(C)C(=O)[C@H](C2CCCC2)N(C)C(=O)C2(CCCC2)NC(=O)[C@@H]2CCCN2C(=O)[C@H](CCc2ccc(C(F)(F)F)c(Cl)c2)NC(=O)CN(C)C(=O)[C@H](Cc2ccc(C)cc2)N(CC2CCCC2)C(=O)CN(C)C(=O)CN(C)C1=O [PP0096] ([NMeL]I[Sar][Sar][X20][Sar][hPhe(3-Cl-4-CF3)]P[Ac5c][NMeGly(cPent)][NMeD]-Morpholide; lactam N-11)	2.8	C (A compound having a KD ratio of 0.1 or more and less than 3 is denoted as C)	C (A compound having a KD ratio of 0.1 or more and less than 3 is denoted as C)
CC[C@H](C)[C@@H]1NC(=O)[C@H](CC(C)C)N(C)C(=O)C[C@@H](C(=O)N2CCOCC2)N(C)C(=O)[C@H](C2CCCC2)N(C)C(=O)C2(CCCC2)NC(=O)[C@@H]2CCCN2C(=O)[C@H](CCc2ccc(C(F)(F)F)c(Cl)c2)NC(=O)CN(C)C(=O)[C@H](Cc2ccc(C)cc2)N(CC2CCCCC2)C(=O)CN(C)C(=O)CN(C)C1=O [PP0097] ([NMeL]I[Sar][Sar][X41][Sar][hPhe(3-Cl-4-CF3)]P[Ac5c][NMeGly(cPent)][NMeD]-Morpholide; lactam N-11)	9.3	C (A compound having a KD ratio of 0.1 or more and less than 3 is denoted as C)	C (A compound having a KD ratio of 0.1 or more and less than 3 is denoted as C)
C=CCN1C(=O)CN(C)C(=O)CN(C)C(=O)[C@H]([C@@H](C)CC)NC(=O)[C@H](CC(C)C)N(C)C(=O)C[C@@H](C(=O)N2CCOCC2)N(C)C(=O)[C@H](C2CCCC2)N(C)C(=O)C2(CCCC2)NC(=O)[C@@H]2CCCN2C(=O)[C@H](CCc2ccc(C(F)(F)F)c(Cl)c2)NC(=O)CN(C)C(=O)[C@@H]1Cc1ccc(C)cc1 [PP0100] ([NMeL]I[Sar][Sar][X10][Sar][hPhe(3-Cl-4-CF3)]P[Ac5c][NMeGly(cPent)][NMeD]-Morpholide; lactam N-11)	0.19	B (a compound having 3 or more and less than 10 is denoted as B)	C (A compound having a KD ratio of 0.1 or more and less than 3 is denoted as C)
C=CCCN1C(=O)CN(C)C(=O)CN(C)C(=O)[C@H]([C@@H](C)CC)NC(=O)[C@H](CC(C)C)N(C)C(=O)C[C@@H](C(=O)N2CCOCC2)N(C)C(=O)[C@H](C2CCCC2)N(C)C(=O)C2(CCCC2)NC(=O)[C@@H]2CCCN2C(=O)[C@H](CCc2ccc(C(F)(F)F)c(Cl)c2)NC(=O)CN(C)C(=O)[C@@H]1Cc1ccc(C)cc1 [PP0101] ([NMeL]I[Sar][Sar][X30][Sar][hPhe(3-Cl-4-CF3)]P[Ac5c][NMeGly(cPent)][NMeD]-Morpholide; lactam N-11)	0.16	B (a compound having 3 or more and less than 10 is denoted as B)	C (A compound having a KD ratio of 0.1 or more and less than 3 is denoted as C)
CC[C@H](C)[C@@H]1NC(=O)[C@H](CC(C)C)N(C)C(=O)C[C@@H](C(=O)N2CCOCC2)N(C)C(=O)[C@H](C2CCCC2)N(C)C(=O)C2(CCCC2)NC(=O)[C@@H]2CCCN2C(=O)[C@H](CCc2ccc(C(F)(F)F)c(Cl)c2)NC(=O)CN(C)C(=O)[C@H](Cc2ccc(C)cc2)N(CCC(F)(F)F)C(=O)CN(C)C(=O)CN(C)C1=O [PP0103] ([NMeL]I[Sar][Sar][X36][Sar][hPhe(3-Cl-4-CF3)]P[Ac5c][NMeGly(cPent)][NMeD]-Morpholide; lactam N-11)	0.15	B (a compound having 3 or more and less than 10 is denoted as B)	C (A compound having a KD ratio of 0.1 or more and less than 3 is denoted as C)
CC[C@H](C)[C@@H]1NC(=O)[C@H](CC(C)C)N(C)C(=O)C[C@@H](C(=O)N2CCOCC2)N(C)C(=O)[C@H](C2CCCC2)N(C)C(=O)C2(CCCC2)NC(=O)[C@@H]2CCCN2C(=O)[C@H](CCc2ccc(C(F)(F)F)c(Cl)c2)NC(=O)CN(C)C(=O)[C@H](Cc2ccc(C)cc2)N(CCOC)C(=O)CN(C)C(=O)CN(C)C1=O [PP0104] ([NMeL]I[Sar][Sar][X35][Sar][hPhe(3-Cl-4-CF3)]P[Ac5c][NMeGly(cPent)][NMeD]-Morpholide; lactam N-11)	0.25	B (a compound having 3 or more and less than 10 is denoted as B)	C (A compound having a KD ratio of 0.1 or more and less than 3 is denoted as C)
